Here are results for 35 substances from patent US20100120690A1, “Polypeptides Having Antimicrobial Activity and Polynucleotides Encoding Same” (Novozymes Adenium Biotech A/S, priority 2005, published 2010).

The first test has as its system Staphylococcus carnosus ATCC51365. The test is described as follows: Yeast screening assay: radial diffusion assay of yeast supernatants. The format is cell-based. On the set-up: key: An activity of 3 is better than Plectasin; An activity of 2 corresponds to the activity of Plectasin; 1 is worse than Plectasin. Conditions: yeast supernatant, clearing zone in radial diffusion assay. Summed up: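 Activity scores (1 worse, 2 equal, 3 better than wild-type plectasin) come from the size of the radial-diffusion clearing zone against S. carnosus at 5×10^5 cfu/mL. Test samples were culture supernatants of yeast transformants induced with galactose for 3 days at 30 °C, and plates were developed at 37 °C with MTT.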
In the case of “GFGCAGPWDEDDMQCHNHCKSIKGYKGGYCAKGGFVCKCY [Mutation N5A]”, the “Activity (antimicrobial activity relative to the activity of plectasin)” value was found to be 3. With “GFGCNGPWDEDDMICHNHCKSIKGYKGGYCAKGGFVCKCY [Mutation Q14I]”, the “Activity (antimicrobial activity relative to the activity of plectasin)” value amounted to 2. Turning to “GFGCNGPWDEDDMQCHNHCKSIKGKKGGYCAKGGFVCKCY [Mutation Y25K]”, the “Activity (antimicrobial activity relative to the activity of plectasin)” value is reported as 2. As to “GFGCNGPWDEDDMQCHNHCKSIKGYKGGYCAKEGFVCKCY [Mutation G33E]”, the “Activity (antimicrobial activity relative to the activity of plectasin)” value was determined as 2.

Consider “GFGCNGPWDEDDMQCHNHCKSIKGYHGGYCAKGGFVCKCY [Mutation K26H]”, for which the “Activity (antimicrobial activity relative to the activity of plectasin)” value is recorded as 2.

“GFGCNGPWDEDDMQCHNHCKSIKGYKGGYCAKGHFVCKCY [Mutation G34H]”: the “Activity (antimicrobial activity relative to the activity of plectasin)” value stood at 2.

As to “GIGCNGPWDEDDMQCHNHCKSIKGYKGGYCAKGGFVCKCY [Mutation F2I]”, the “Activity (antimicrobial activity relative to the activity of plectasin)” value came out at 2.

Take “GFGCNGPWDEDDMQCHNVCKSIKGYKGGYCAKGGFVCKCY [Mutation H18V]”: the “Activity (antimicrobial activity relative to the activity of plectasin)” value is listed as 2. With “GFGCNGPWDEDPMQCHNHCKSIKGYKGGYCAKGGFVCKCY [Mutation D12P]”, the “Activity (antimicrobial activity relative to the activity of plectasin)” value is reported as 2. Regarding “GFGCNGPWDEDDGQCHNHCKSIKGYKGGYCAKGGFVCKCY [Mutation M13G]”, the “Activity (antimicrobial activity relative to the activity of plectasin)” value amounted to 2. Consider “GFGCNGPWDEDDMQCHNQCKSIKGYKGGYCAKGGFVCKCY [Mutation H18Q]”, for which the “Activity (antimicrobial activity relative to the activity of plectasin)” value was 2. “GFGCNGPWDEDDMQCHNHCKSIKHYKGGYCAKGGFVCKCY [Mutation G24H]”: the “Activity (antimicrobial activity relative to the activity of plectasin)” value came out at 3.

The test system of the next test is panel of 6 different strains of Staphylococcus aureus. Description: Average MIC, NCCLS/CLSI guidelines using caMHB (Example 6). Format: cell-based. Conditions: average over 6 S. aureus strains, duplicate; MIC above 32 counted as 64; read after 18-24 hours at 37° C. As for the experimental part:
A large number of antimicrobial peptides of the invention were tested against a panel of 6 different strains of Staphylococcus aureus listed below:
Staphylococcus aureus, ATCC29213, MSSA, NCCLS reference strain; Staphylococcus aureus, ATCC25923, MSSA, NCCLS reference strain; Staphylococcus aureus, ATCC29737, MSSA; Staphylococcus aureus, E33235, MSSA; Staphylococcus aureus, 698-01, MRSA ST5, Str, Kan, Oxa; Staphylococcus aureus, 566-03, MRSA ST80, Oxa, Tet, Fus, Kan.
The staphylococci were exposed to the following peptide concentrations: 32; 16; 8; 4; 2; 1; 0.5; 0.25; 0.13; […]; and 0.03 microgram/mL. All peptides were purified, HPLC quantified and the concentrated peptides (>160 micrograms/mL) were diluted to 160 micrograms/mL in peptide dilution buffer (0.1% BSA, 0.01% Acetic Acid).
The MIC determination was done essentially as described by NCCLS/CLSI guidelines using caMHB. The MICs were read after 18-24 hours of 37° C. incubations and recorded along with the CFU in the table below.
A total number of 95 antimicrobial peptides of the invention were evaluated in duplicate against the 6 bacterial strains described above.
In the majority of the double determinations (93%), the MIC varied <2 fold. An average MIC is tabulated below. If the MIC was above 32 micrograms/mL, a value of 64 was used to calculate the average.
“N17K: antimicrobial peptide of the invention, Plectasin variant (GFGCNGPWDEDDMQCHKHCKSIKGYKGGYCAKGGFVCKCY) [Mutation N17K]”: the “Average MIC” value amounted to 11 micrograms/mL.

For “GFGCAGPWDEDDMQCHNHCKSIKGYKGGYCAKGGFVCKCY [Mutation N5A]”, the “Average MIC” value amounted to 29 micrograms/mL.

Regarding “M13S + Q14K + K26R: antimicrobial peptide of the invention, Plectasin variant (GFGCNGPWDEDDSKCHNHCKSIKGYRGGYCAKGGFVCKCY; Synthetic antimicrobial polypeptide)”, the “Average MIC” value is reported as 15 micrograms/mL. As to “N5H + M13E + N17E: antimicrobial peptide of the invention, Plectasin variant (GFGCHGPWDEDDEQCHEHCKSIKGYKGGYCAKGGFVCKCY)”, the “Average MIC” value was determined as 12 micrograms/mL. Take “N5G + M13W + N17S: antimicrobial peptide of the invention, Plectasin variant (GFGCGGPWDEDDWQCHSHCKSIKGYKGGYCAKGGFVCKCY)”: the “Average MIC” value was 10 micrograms/mL. As to “N17K + K32R: antimicrobial peptide of the invention, Plectasin variant (GFGCNGPWDEDDMQCHKHCKSIKGYKGGYCARGGFVCKCY)”, the “Average MIC” value worked out at 7 micrograms/mL. In the case of “S21A: antimicrobial peptide of the invention, Plectasin variant (GFGCNGPWDEDDMQCHNHCKAIKGYKGGYCAKGGFVCKCY) [Mutation S21A]”, the “Average MIC” value turned out to be 17 micrograms/mL. “N17R + Y25R: antimicrobial peptide of the invention, Plectasin variant (GFGCNGPWDEDDMQCHRHCKSIKGRKGGYCAKGGFVCKCY)”: the “Average MIC” value amounted to 18 micrograms/mL. Regarding “N17A: antimicrobial peptide of the invention, Plectasin variant (GFGCNGPWDEDDMQCHAHCKSIKGYKGGYCAKGGFVCKCY) [Mutation N17A]”, the “Average MIC” value was 15 micrograms/mL. Regarding “N17S: antimicrobial peptide of the invention, Plectasin variant (GFGCNGPWDEDDMQCHSHCKSIKGYKGGYCAKGGFVCKCY) [Mutation N17S]”, the “Average MIC” value came out at 14 micrograms/mL. As for “D11G + N17I: antimicrobial peptide of the invention, Plectasin variant (GFGCNGPWDEGDMQCHIHCKSIKGYKGGYCAKGGFVCKCY)”, the “Average MIC” value was 16 micrograms/mL. With “N5K + M13L: antimicrobial peptide of the invention, Plectasin variant (GFGCKGPWDEDDLQCHNHCKSIKGYKGGYCAKGGFVCKCY)”, the “Average MIC” value turned out to be 9 micrograms/mL.

For the substance “K26C + Y40YRCG: antimicrobial peptide of the invention, Plectasin variant (GFGCNGPWDEDDMQCHNHCKSIKGYCGGYCAKGGFVCKCYRCG)”, the “Average MIC” value was determined as 11 micrograms/mL. In the case of “M13A + Q14K + K26R: antimicrobial peptide of the invention, Plectasin variant (GFGCNGPWDEDDAKCHNHCKSIKGYRGGYCAKGGFVCKCY)”, the “Average MIC” value came out at 9 micrograms/mL.

In the case of “N5G + D9A + Q14S + K23T + A31T: antimicrobial peptide of the invention, Plectasin variant (GFGCGGPWAEDDMSCHNHCKSITGYKGGYCTKGGFVCKCY)”, the “Average MIC” value is 14 micrograms/mL.

On to “S21N: antimicrobial peptide of the invention, Plectasin variant (GFGCNGPWDEDDMQCHNHCKNIKGYKGGYCAKGGFVCKCY) [Mutation S21N]”, for which the “Average MIC” value came to 11 micrograms/mL. Consider “N5D + D9S + Q14R: antimicrobial peptide of the invention, Plectasin variant (GFGCDGPWSEDDMRCHNHCKSIKGYKGGYCAKGGFVCKCY)”, for which the “Average MIC” value is reported as 16 micrograms/mL.

For the substance “M13R + Q14K + K26R: antimicrobial peptide of the invention, Plectasin variant (GFGCNGPWDEDDRKCHNHCKSIKGYRGGYCAKGGFVCKCY)”, the “Average MIC” value amounted to 5 micrograms/mL. For the substance “N5S + M13V + N17A: antimicrobial peptide of the invention, Plectasin variant (GFGCSGPWDEDDVQCHAHCKSIKGYKGGYCAKGGFVCKCY)”, the “Average MIC” value worked out at 18 micrograms/mL.

For “N5G + M13W: antimicrobial peptide of the invention, Plectasin variant (GFGCGGPWDEDDWQCHNHCKSIKGYKGGYCAKGGFVCKCY)”, the “Average MIC” value came to 9 micrograms/mL. As to “S21V: antimicrobial peptide of the invention, Plectasin variant (GFGCNGPWDEDDMQCHNHCKVIKGYKGGYCAKGGFVCKCY) [Mutation S21V]”, the “Average MIC” value is 26 micrograms/mL.

Consider “N17F: antimicrobial peptide of the invention, Plectasin variant (GFGCNGPWDEDDMQCHFHCKSIKGYKGGYCAKGGFVCKCY) [Mutation N17F]”, for which the “Average MIC” value was found to be 12 micrograms/mL. With “N5S + M13V + N17T: antimicrobial peptide of the invention, Plectasin variant (GFGCSGPWDEDDVQCHTHCKSIKGYKGGYCAKGGFVCKCY)”, the “Average MIC” value is 16 micrograms/mL.

Turning to “N17T: antimicrobial peptide of the invention, Plectasin variant (GFGCNGPWDEDDMQCHTHCKSIKGYKGGYCAKGGFVCKCY) [Mutation N17T]”, the “Average MIC” value is 21 micrograms/mL.
